Key:
[1] = pKa value was determined; type: physicochemical
[2] = Area under the concentration time curve in rat after 40 mg/kg oral dosage; type: ADME, organism-based; parameters: dose 40 mg/kg, route oral; unit not given here; conditions: in vivo
[3] = Area under the concentration time curve in human after 100 mg/kg oral dosage; type: ADME, organism-based; parameters: dose 100 mg/kg, route oral; unit not given here; conditions: in vivo

Row | pKa [1] | AUC [2] | AUC [3] | SMILES
1 | 3.1 | 1.5 | – | N#Cc1ccc(Nc2nc(N)nc(Cc3c(Cl)cccc3Cl)n2)cc1
2 | 3.3 | 67.5 | – | N#Cc1ccc(Nc2nc(N)nc(Cc3c(Cl)ccc4[nH]ccc34)n2)cc1
3 | 1.9 | 0.6 | – | N#Cc1ccc(Nc2nc(N)nc(Oc3c(Cl)cccc3Cl)n2)cc1
4 | 2.5 | 0.1 | 0.1 | N#Cc1ccc(Nc2nc(Cc3c(Cl)cccc3Cl)nc(NO)n2)cc1
5 | 2.8 | 4.4 | – | N#Cc1ccc(Nc2nc(N)nc(Cc3c(Cl)ccc(Cl)c3Cl)n2)cc1
6 | 3.8 | – | – | Cc1cc(C)c(Nc2nc(N)nc(Nc3ccc(C#N)cc3)n2)c(C)c1
7 | – | 7.3 | – | N#Cc1ccc(Nc2nc(N)cc(Cc3c(Cl)cccc3Cl)n2)cc1

Continued, compound first:

Row | SMILES | pKa [1] | AUC [2] | AUC [3]
8 | Cc1cc(C#N)cc(C)c1Oc1nc(Nc2ccc(C#N)cc2)ncc1Br | 2.7 | – | –
9 | Cc1cc(C)c(Nc2nc(Nc3ccc(C#N)cc3)ncc2Cl)c(C)c1 | 3.6 | – | –
10 | Cc1cc(C#N)cc(C)c1Nc1ccnc(Nc2ccc(C#N)cc2)n1 | 5.1 | 49.3 | 8.2
11 | Cc1cc(C)c(Nc2ncnc(Nc3ccc(C#N)cc3)n2)c(C)c1 | 2.6 | – | –
12 | Cc1cc(C#N)cc(C)c1Oc1nc(Nc2ccc(C#N)cc2)nc(CO)c1Br | 2 | 0.6 | –
13 | Cc1cc(C#N)cc(C)c1Oc1nc(Nc2ccc(C#N)cc2)nc(N)c1Br [ETRAVIRINE] | 3.5 | – | –

From ChEMBL document CHEMBL1142731, “Concentration and pH dependent aggregation of hydrophobic drug molecules and relevance to oral bioavailability” (J Med Chem, 2005)
